Laboratory results from patent publication US12435059B2, “AMP-activated protein kinase inhibitors and methods of making and using the same” (The Regents of the University of Colorado, priority 2019, dated 2025).
Read-outs that look alike come from different tables or passages of the source.

Legend:
Experiment in all cases: biochemical
Type in all cases: binding
468 kinases [1] = target: 468 kinases (Homo sapiens, UniProt P45983); details: JNK1; read-out: % Inhibition @ 100 nM
468 kinases [2] = target: 468 kinases (Homo sapiens, UniProt P42336, I800L); details: PIK3CA(I800L); read-out: % Inhibition @ 100 nM
468 kinases [3] = target: 468 kinases (Homo sapiens, UniProt O94768); details: DRAK2; read-out: % Inhibition @ 100 nM
468 kinases [4] = target: 468 kinases (Homo sapiens, UniProt P36888, R834Q); details: FLT3(R834Q); read-out: % Inhibition @ 100 nM
468 kinases [5] = target: 468 kinases (Homo sapiens, UniProt Q12852); details: DLK; read-out: % Inhibition @ 100 nM
468 kinases [6] = target: 468 kinases (Homo sapiens, UniProt O43293); details: DAPK3; read-out: % Inhibition @ 100 nM
468 kinases [7] = target: 468 kinases (Homo sapiens, UniProt Q8NG66); details: NEK11; read-out: % Inhibition @ 100 nM
468 kinases [8] = target: 468 kinases (Homo sapiens, UniProt Q14289); details: PYK2; read-out: % Inhibition @ 100 nM
468 kinases [9] = target: 468 kinases (Homo sapiens, UniProt Q8TDR2); details: STK35; read-out: % Inhibition @ 100 nM
468 kinases [10] = target: 468 kinases (Homo sapiens, UniProt Q7L7X3); details: TAOK1; read-out: % Inhibition @ 100 nM
468 kinases [11] = target: 468 kinases (Homo sapiens, UniProt P42336, Q546K); details: PIK3CA(Q546K); read-out: % Inhibition @ 100 nM
468 kinases [12] = target: 468 kinases (Homo sapiens, UniProt P29323); details: EPHB2; read-out: % Inhibition @ 100 nM
468 kinases [13] = target: 468 kinases (Homo sapiens, UniProt Q96GD4); details: AURKB; read-out: % Inhibition @ 100 nM
468 kinases [14] = target: 468 kinases (Homo sapiens, UniProt P51812); details: read-out: % Inhibition @ 100 nM
468 kinases [15] = target: 468 kinases (Homo sapiens, UniProt O75676); details: read-out: % Inhibition @ 100 nM
468 kinases [16] = target: 468 kinases (Homo sapiens, UniProt P49137); details: MAPKAPK2; read-out: % Inhibition @ 100 nM
468 kinases [17] = target: 468 kinases (Homo sapiens, UniProt P09769); details: FGR; read-out: % Inhibition @ 100 nM
468 kinases [18] = target: 468 kinases (Homo sapiens, UniProt Q9BUB5); details: MKNK1; read-out: % Inhibition @ 100 nM
468 kinases [19] = target: 468 kinases (Homo sapiens, UniProt Q8TD08); details: ERK8; read-out: % Inhibition @ 100 nM
468 kinases [20] = target: 468 kinases (Homo sapiens, UniProt P51617); details: IRAK1; read-out: % Inhibition @ 100 nM
468 kinases [21] = target: 468 kinases (Homo sapiens, UniProt P51955); details: NEK2; read-out: % Inhibition @ 100 nM
468 kinases [22] = target: 468 kinases (Homo sapiens, UniProt P20794); details: MAK; read-out: % Inhibition @ 100 nM
468 kinases [23] = target: 468 kinases (Homo sapiens, UniProt Q15349); details: read-out: % Inhibition @ 100 nM
468 kinases [24] = target: 468 kinases (Homo sapiens, UniProt P21860); details: ERBB3; read-out: % Inhibition @ 100 nM
468 kinases [25] = target: 468 kinases (Homo sapiens, UniProt Q13555); details: CAMK2G; read-out: % Inhibition @ 100 nM
468 kinases [26] = target: 468 kinases (Homo sapiens, UniProt Q16659); details: ERK3; read-out: % Inhibition @ 100 nM
468 kinases [27] = target: 468 kinases (Homo sapiens, UniProt P49761); details: CLK3; read-out: % Inhibition @ 100 nM
468 kinases [28] = target: 468 kinases (Homo sapiens, UniProt Q13557); details: CAMK2D; read-out: % Inhibition @ 100 nM
468 kinases [29] = target: 468 kinases (Homo sapiens, UniProt Q86UX6); details: YANK3; read-out: % Inhibition @ 100 nM
468 kinases [30] = target: 468 kinases (Homo sapiens, UniProt P15056, V600E); details: BRAF(V600E); read-out: % Inhibition @ 100 nM
468 kinases [31] = target: 468 kinases (Homo sapiens, UniProt Q9P1W9); details: PIM2; read-out: % Inhibition @ 100 nM
468 kinases [32] = target: 468 kinases (Homo sapiens, UniProt P11309); details: PIM1; read-out: % Inhibition @ 100 nM

SMILES | inhibition at 0.1 µM (468 kinases [1]) [%] | inhibition at 0.1 µM (468 kinases [2]) [%] | inhibition at 0.1 µM (468 kinases [3]) [%] | inhibition at 0.1 µM (468 kinases [4]) [%] | inhibition at 0.1 µM (468 kinases [5]) [%] | inhibition at 0.1 µM (468 kinases [6]) [%] | inhibition at 0.1 µM (468 kinases [7]) [%] | inhibition at 0.1 µM (468 kinases [8]) [%] | inhibition at 0.1 µM (468 kinases [9]) [%] | inhibition at 0.1 µM (468 kinases [10]) [%] | inhibition at 0.1 µM (468 kinases [11]) [%] | inhibition at 0.1 µM (468 kinases [12]) [%] | inhibition at 0.1 µM (468 kinases [13]) [%] | inhibition at 0.1 µM (468 kinases [14]; RSK2(Kin.Dom.1-N-terminal)) [%] | inhibition at 0.1 µM (468 kinases [15]; RPS6KA4(Kin.Dom.1-N-terminal)) [%] | inhibition at 0.1 µM (468 kinases [15]; RPS6KA4(Kin.Dom.2-C-terminal)) [%] | inhibition at 0.1 µM (468 kinases [16]) [%] | inhibition at 0.1 µM (468 kinases [17]) [%] | inhibition at 0.1 µM (468 kinases [18]) [%] | inhibition at 0.1 µM (468 kinases [19]) [%] | further results
CCN(CC)CCNC(=O)c1c(C)[nH]c(/C=C2\C(=O)Nc3ccc(CCO)cc32)c1C [Compound No. 10, (Z)—N-(2-(Diethylamino)ethyl)-5-((5-(2-hydroxyethyl)-2-oxoindolin-3-ylidene)methyl)-2,4-dimethyl-1H-pyrrole-3-carboxamide] | 9 | 41 | 1 | 56 | 86 | 5 | 0 | 31 | 21 | 22 | 0 | 3 | 20 | 39 | 8 | 0 | 0 | 16 | 3 | 15 | inhibition at 0.1 µM (468 kinases [14]; RSK2(Kin.Dom.2-C-terminal)): 54%; inhibition at 0.1 µM (468 kinases [20]): 99.3%; inhibition at 0.1 µM (468 kinases [21]): 0%; inhibition at 0.1 µM (468 kinases [22]): 0%; inhibition at 0.1 µM (468 kinases [23]; RSK3(Kin.Dom.1-N-terminal)): 13%; inhibition at 0.1 µM (468 kinases [23]; RSK3(Kin.Dom.2-C-terminal)): 0%; inhibition at 0.1 µM (468 kinases [24]): 14%; inhibition at 0.1 µM (468 kinases [25]): 8%; inhibition at 0.1 µM (468 kinases [26]): 0%; inhibition at 0.1 µM (468 kinases [27]): 5%; inhibition at 0.1 µM (468 kinases [28]): 20%; inhibition at 0.1 µM (468 kinases [29]): 22%; inhibition at 0.1 µM (468 kinases [30]): 3%; inhibition at 0.1 µM (468 kinases [31]): 8%; inhibition at 0.1 µM (468 kinases [32]): 0%
CCN(CC)CCNC(=O)c1c(C)[nH]c(/C=C2\C(=O)Nc3ccc(CCC(N)=O)cc32)c1C [Compound No. 16, (Z)-5-((5-(3-Amino-3-oxopropyl)-2-oxoindolin-3-ylidene)methyl)-N-(2-(diethylamino)ethyl)-2,4-dimethyl-1H-pyrrole-3-carboxamide] | 7 | 20 | 0 | 55 | 100 | 21 | 36 | 7 | 15 | 53 | 3 | 10 | 34 | 59 | 34 | 35 | 0 | 32 | 31 | 25 | inhibition at 0.1 µM (468 kinases [20]): 96.9%; inhibition at 0.1 µM (468 kinases [21]): 5%; inhibition at 0.1 µM (468 kinases [22]): 4%; inhibition at 0.1 µM (468 kinases [23]; RSK3(Kin.Dom.1-N-terminal)): 7%; inhibition at 0.1 µM (468 kinases [23]; RSK3(Kin.Dom.2-C-terminal)): 19%; inhibition at 0.1 µM (468 kinases [24]): 11%; inhibition at 0.1 µM (468 kinases [25]): 18%; inhibition at 0.1 µM (468 kinases [26]): 9%; inhibition at 0.1 µM (468 kinases [27]): 10%; inhibition at 0.1 µM (468 kinases [28]): 4%; inhibition at 0.1 µM (468 kinases [29]): 0%; inhibition at 0.1 µM (468 kinases [30]): 0%; inhibition at 0.1 µM (468 kinases [31]): 0%; inhibition at 0.1 µM (468 kinases [32]): 0%
